Measurements as given in PMC3537142 (EMBO Reports, 2012).
Changes are numbered by the printed parent chain.

Experiments:
[1] = target: T1, 5HTBP construct A1 B2 D1W (Aplysia californica, UniProt Q8WSF8, K160T/S111E/V159L/Y72W); experiment: SPR biosensor assay; details: construct A1B2D1W; stated for both [3H]granisetron binding and SPR
T1 sequence (Q8WSF8 20-236 Y72W/S111E/V159L/K160T): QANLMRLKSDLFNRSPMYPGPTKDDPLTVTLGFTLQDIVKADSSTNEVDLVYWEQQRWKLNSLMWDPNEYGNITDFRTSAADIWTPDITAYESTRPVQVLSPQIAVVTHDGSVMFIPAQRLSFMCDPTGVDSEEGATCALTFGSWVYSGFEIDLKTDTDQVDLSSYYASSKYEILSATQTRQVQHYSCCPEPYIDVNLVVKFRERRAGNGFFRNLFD

AChBPs = details: ref [4], [5]; cited from earlier work
[2] = target: T2, 5HTBP construct D2 (Y53W, Q55R) (Aplysia californica, UniProt Q8WSF8, Q74R/Y72W); experiment: Competition binding with [3H]granisetron; details: read-out: Granisetron Ki, [3H]granisetron binding
T2 sequence (Q8WSF8 20-236 Y72W/Q74R): T1 sequence (Q8WSF8 20-236 Y72W/S111E/V159L/K160T) with Q55R, E92S, L140V, T141K

[3] = target: T3, 5HTBP construct A1 (S92E) (Aplysia californica, UniProt Q8WSF8, S111E); experiment: Competition binding with [3H]granisetron; details: read-out: Ki, [3H]granisetron binding; single mutant construct A1 (S92E)
T3 sequence (Q8WSF8 20-236 S111E): T1 sequence (Q8WSF8 20-236 Y72W/S111E/V159L/K160T) with W53Y, L140V, T141K

[4] = target: T4, construct A2NE (Y91N, S92E) (Aplysia californica, UniProt Q8WSF8, S111E/Y110N); experiment: [3H]granisetron binding to single-loop construct
T4 sequence (Q8WSF8 20-236 Y110N/S111E): T1 sequence (Q8WSF8 20-236 Y72W/S111E/V159L/K160T) with W53Y, Y91N, L140V, T141K

construct C5 = target: T5, construct C5 (Aplysia californica, UniProt Q8WSF8, C207M/C208E/E210S/P209S/P211N); experiment: [3H]granisetron binding to single-loop construct
T5 sequence (Q8WSF8 20-236 C207M/C208E/P209S/E210S/P211N): T1 sequence (Q8WSF8 20-236 Y72W/S111E/V159L/K160T) with W53Y, E92S, L140V, T141K, C188M, C189E, P190S, E191S, P192N

construct C6 = target: T6, construct C6 (Aplysia californica, UniProt Q8WSF8, C207E/C208S/E210N/INS206M/P209S/P211Y); experiment: [3H]granisetron binding to single-loop construct
T6 sequence (Q8WSF8 with tags, fused parts or gaps INS206M/C207E/C208S/P209S/E210N/P211Y): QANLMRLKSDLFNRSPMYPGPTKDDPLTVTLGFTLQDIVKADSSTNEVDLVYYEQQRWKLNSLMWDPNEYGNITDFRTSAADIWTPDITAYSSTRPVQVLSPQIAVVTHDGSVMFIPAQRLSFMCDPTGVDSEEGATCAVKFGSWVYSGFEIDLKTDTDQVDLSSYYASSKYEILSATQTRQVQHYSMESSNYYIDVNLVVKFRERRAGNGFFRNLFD

construct E3 = target: T7, construct E3 (Aplysia californica, UniProt Q8WSF8, I123Y/I135Y/V125Y); experiment: [3H]granisetron binding to single-loop construct
T7 sequence (Q8WSF8 20-236 I123Y/V125Y/I135Y): T1 sequence (Q8WSF8 20-236 Y72W/S111E/V159L/K160T) with W53Y, E92S, I104Y, V106Y, I116Y, L140V, T141K

construct E1 = target: T8, construct E1 (Aplysia californica, UniProt Q8WSF8, I135Y); experiment: [3H]granisetron binding to single-loop construct
T8 sequence (Q8WSF8 20-236 I135Y): T1 sequence (Q8WSF8 20-236 Y72W/S111E/V159L/K160T) with W53Y, E92S, I116Y, L140V, T141K

5HTBP construct A1 B2 D2 = target: T9, 5HTBP construct A1 B2 D2 (Aplysia californica, UniProt Q8WSF8, K160T/Q74R/S111E/V159L/Y72W); experiment: Competition binding with [3H]granisetron; details: NB = no binding
T9 sequence (Q8WSF8 20-236 Y72W/Q74R/S111E/V159L/K160T): T1 sequence (Q8WSF8 20-236 Y72W/S111E/V159L/K160T) with Q55R

## NCCc1c[nH]c2ccc(O)cc12 [Serotonin, 5-hydroxytryptamine]
[1]
  increase in the affinity compared with wild-type Ac-AChBP: ~40 fold
AChBPs
  lower affinity than acetylcholine: ~60 fold

## CN1C2CCCC1CC(NC(=O)c1nn(C)c3ccccc13)C2 (stereo not shown) [[^3H]granisetron, [3H]BRL-43694]
[2]
  Ki: 454 ± 71 nM
[3]
  Ki: 270 ± 51 nM
[4]
  [3H]granisetron binding: failed to bind
Construct C5
  [3H]granisetron binding: did not show detectable [^3H]granisetron binding
Construct C6
  [3H]granisetron binding: did not show detectable [^3H]granisetron binding
Construct E3
  [3H]granisetron binding: no detectable [^3H]granisetron binding
Construct E1
  [3H]granisetron binding: no detectable [^3H]granisetron binding
5HTBP construct A1 B2 D2
  Granisetron Ki, [3H]granisetron binding: no longer bound
